Where “and” joins values, the source holds several entries; their conditions need not be identical. Equal values may be shown once.
How the values were obtained:
5-HT1A receptor = target: T1, 5-HT1A receptor (Homo sapiens, UniProt P08908); experiment: cAMP-Glo assay of 5-HT1A receptor modulation, CHO-K1/5-HT1A/Ga15 (+5-HT1A) vs CHO-K1/Ga15 (−5-HT1A) cells; type: cell-based; settings: +5-HT1A vs −5-HT1A CHO-K1 cells; 4 μM forskolin; increasing ligand concentration
T1 construct: host or cells: CHO-K1 (co-expressing Ga15)
T1 sequence (P08908 1-422): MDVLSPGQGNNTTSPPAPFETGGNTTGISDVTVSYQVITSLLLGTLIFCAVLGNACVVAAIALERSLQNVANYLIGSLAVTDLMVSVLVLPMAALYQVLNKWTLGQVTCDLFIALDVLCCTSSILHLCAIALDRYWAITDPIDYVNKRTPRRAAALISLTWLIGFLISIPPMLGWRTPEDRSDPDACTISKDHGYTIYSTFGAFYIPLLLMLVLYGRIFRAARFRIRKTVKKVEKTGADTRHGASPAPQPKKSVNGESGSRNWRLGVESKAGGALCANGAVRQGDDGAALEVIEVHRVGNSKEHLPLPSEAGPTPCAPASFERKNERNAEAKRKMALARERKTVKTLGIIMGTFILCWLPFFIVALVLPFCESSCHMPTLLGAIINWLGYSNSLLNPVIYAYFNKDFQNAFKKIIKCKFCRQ

[1] = Dosing solution concentration by LC-MS (nominal vs measured); type: physicochemical
Protocol: (§1) Briefly, the procedure was as follows. […] 19, 2022.
Pharmacokinetic (PK) evaluations were performed in the same manner as described in Example 1, except compound C(IV) was used in place of compound C(V). […] Thus, only psilocin PK analysis was performed. […] Table 46 summarizes these “measured” concentrations along with corresponding “nominal” concentrations for each dosing solution. Results for psilocin PK following C(IV) administration are found in Tables 47A-47B (0.293 mg/kg IV dose), Tables 48A-48B (0.275 mg/kg oral dose), Tables 49A-49B (0.789 mg/kg oral dose), Tables 50A-50B (2.52 mg/kg oral dose), Table 51 (comparative summary for IV data), Table 52 (comparative summary for oral data), Table 53A (psilocin exposure) and FIGS. 10H (i) and 10H (ii).

[2] = target: T2, 5-HT2A receptor (5-HT2AR) (Mus musculus, UniProt P35363); experiment: Drug-induced Head Twitch Response (HTR); type: in vivo; settings: 1 mg/kg i.p., 15-to-30-minute window post-drug, relative to vehicle
T2 construct: host or cells: C57BL/6 mice, in vivo (neuronal receptor)
T2 sequence (P35363 whole entry): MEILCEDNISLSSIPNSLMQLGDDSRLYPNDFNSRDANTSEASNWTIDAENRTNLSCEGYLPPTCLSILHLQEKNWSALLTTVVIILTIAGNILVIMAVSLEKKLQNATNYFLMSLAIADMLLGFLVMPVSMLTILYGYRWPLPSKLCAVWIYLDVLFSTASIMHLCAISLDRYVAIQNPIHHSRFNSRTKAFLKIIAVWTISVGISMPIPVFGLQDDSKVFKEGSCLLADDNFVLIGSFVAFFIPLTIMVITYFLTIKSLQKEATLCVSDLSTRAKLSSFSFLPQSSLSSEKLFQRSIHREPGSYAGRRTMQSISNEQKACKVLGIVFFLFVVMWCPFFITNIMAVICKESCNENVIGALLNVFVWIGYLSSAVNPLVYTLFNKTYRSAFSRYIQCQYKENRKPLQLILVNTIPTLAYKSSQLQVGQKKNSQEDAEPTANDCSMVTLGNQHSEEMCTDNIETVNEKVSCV

[3] = Mouse pharmacokinetic (PK) study, parent compound and psilocin metabolite in plasma; type: in vivo; settings: for Plasma concentration of psilocin: individual mice, LLOQ 0.2 ng/mL
Text: as §1

SMILES: CN(C)CCc1c[nH]c2cccc(OC(=O)CC3CC3)c12 [C(IV)]
- 5-HT1A receptor modulation (reduction of forskolin-induced cAMP) (5-HT1A receptor): significant receptor modulation
- Stability in dosing solutions [1]: compound instability in dosing solutions
- Head Twitch Response (HTR) incidence [2]: Elevated incidences of HTR
- Plasma concentration of psilocin ([3]; 0.275 mg/kg oral C(IV), 4 h): BLQ
- Plasma concentration of psilocin ([3]; 0.275 mg/kg oral C(IV), 6 h): BLQ
- Plasma concentration of psilocin ([3]; 0.275 mg/kg oral C(IV), 8 h): BLQ
- Plasma concentration of psilocin ([3]; 0.275 mg/kg oral C(IV), 24 h): No Peak
- Plasma concentration of psilocin ([3]; 0.293 mg/kg i.v. C(IV), 8 h): No Peak and BLQ (2×)
- Plasma concentration of psilocin ([3]; 0.789 mg/kg oral C(IV), 8 h): BLQ
- Plasma concentration of psilocin ([3]; 0.789 mg/kg oral C(IV), 24 h): No Peak
- Plasma concentration of psilocin ([3]; 2.52 mg/kg oral C(IV), 24 h): BLQ and No Peak (2×)
- Detection of parent compound in plasma ([3]; mouse, any animals at any dose (i.v. and oral)): not detectable in any animals at any dose

Source: US20250197351A1, “C4-CARBOXYLIC ACID-S[…] DERIVATIVES AND METHODS OF USING” (priority 2022, published 2025)
